One may read the IC50 as the concentration needed to halve the response being measured.

Read-outs that look alike come from different tables or passages of the source.

One assay relates to MV-4-11 cells. Kind of assay: Antiproliferative activity against MV-4-11 cells (CellTiter-Glo, 72 h). Type of assay: cell-based. To be noted: Homo sapiens, read-out: Antiproliferative activity IC50. The procedure:
MV411 cells in the logarithmic growth phase were diluted in a medium (RPMI+10% FBS) and plated at 5,000 cells/well in 96-well whole black plates (WHB) with 50 μL/well. After plating, the plates were incubated in an incubator at 5% CO2 and 37° C. for 24 h before the compounds were added. The compounds were prepared into a 10 mM stock solution in DMSO and diluted in a culture medium to the desired concentrations (a final DMSO concentration of 0.2%). […] The plates were incubated at 5% CO2 and 37° C. for 72 h. After the incubation was complete, the plates were equilibrated at room temperature for 30 min. CellTiter-Glo® Reagent (Promega G7573) was added at 100 μL/well. The plates were shaken for 12 min on a microplate shaker. The luminescence value was measured at room temperature by the GloMax navigator (Promega GM2010).
(Cellular ATP, detected with luciferase, serves as a proxy for viable cell number.)

In a further assay the target is T1, GSPT1 protein (Homo sapiens, UniProt P15170).
T1 construct: The whole cell lysate was prepared using a RIPA lysis buffer; endogenous in cells; host or cells: NB-4 cells
Kind of assay: Degradation of GSPT1 protein in NB-4 cells (Western blot). The class given is cell-based. Conditions: read-out: GSPT1 degradation. The procedure: 150 μL of DMSO and the compounds (1 μM) were added, and the mixture was incubated in an incubator at 5% CO2 and 37° C. for 6 h. The cells were centrifuged, and the culture medium was discarded. PBS was added for washing and then discarded. The whole cell lysate was prepared using a RIPA lysis buffer containing a protease inhibitor cocktail and a phosphatase inhibitor, and incubated on ice for 30 min. The mixture was centrifuged, and the cell debris was discarded. The whole cell lysate supernatant was collected and transferred to a fresh EP tube. Samples were prepared using a loading buffer after a BCA protein assay. The samples were incubated in a metal bath at 100° C. for 10 min.
The samples were electrophoretically separated from proteins on a 4-20% precast gel (SDS-PAGE gel), transferred to a PVDF membrane, blocked with 5% NFDM/TBST for 1 h at room temperature, co-incubated overnight at 4° C. with the primary antibody, and co-incubated for 2 h at room temperature with the secondary antibody on the next day. The signals were detected on the […]™ imaging system.
In general terms: In western blotting, separated proteins are transferred to a membrane and probed.

T1 sequence (P15170 whole entry): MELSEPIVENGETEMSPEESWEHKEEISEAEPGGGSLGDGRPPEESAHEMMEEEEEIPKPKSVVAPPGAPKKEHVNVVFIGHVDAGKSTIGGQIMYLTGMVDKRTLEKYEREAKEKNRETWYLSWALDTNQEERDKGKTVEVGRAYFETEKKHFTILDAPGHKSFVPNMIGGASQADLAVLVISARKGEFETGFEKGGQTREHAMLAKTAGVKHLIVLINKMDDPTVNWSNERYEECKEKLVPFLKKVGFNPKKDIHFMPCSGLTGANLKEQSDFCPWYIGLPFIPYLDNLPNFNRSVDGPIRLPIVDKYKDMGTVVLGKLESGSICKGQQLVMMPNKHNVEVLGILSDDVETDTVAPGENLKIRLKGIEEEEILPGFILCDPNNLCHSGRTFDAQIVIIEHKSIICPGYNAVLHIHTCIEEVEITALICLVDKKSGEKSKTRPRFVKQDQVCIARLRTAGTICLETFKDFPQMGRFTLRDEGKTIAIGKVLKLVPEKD

Turning to `O=C1CCC(N2Cc3cc(CNC(=O)c4ccc(F)cc4)c(F)cc3C2=O)C(=O)N1` (stereo not drawn) [FDAB-26], the half-inhibitory concentration (IC50) in the assay on MV-4-11 cells (MV4-11, MV-4-11 cells, 72 h) was greater than 1000 nM. For the same molecule, the inhibition at 1 µM at GSPT1 protein (NB-4 cells, compound 1 μM, 6 h) was less than 25%.
Regarding `O=C(CCc1cccc2ccccc12)NCc1cc(F)cc2c1CN(C1CCC(=O)NC1=O)C2=O` (stereo not drawn) [FDAB-170], the IC50 in the assay on MV-4-11 cells (MV4-11, MV-4-11 cells, 72 h) was 10 to 100 nM. In addition, the inhibition at 1 µM on GSPT1 protein (NB-4 cells, compound 1 μM, 6 h) is greater than 80%.
As to `O=C1CCC(N2Cc3c(ccc(CNC(=O)c4ccc(Cl)cc4F)c3Cl)C2=O)C(=O)N1` (stereo not drawn) [FDAB-119], the IC50 in the assay on MV-4-11 cells (MV4-11, MV-4-11 cells, 72 h) was in the range of 10 to 100 nM. Moreover, the inhibition at 1 µM on GSPT1 protein (NB-4 cells, compound 1 μM, 6 h) is greater than 80%.
Take `O=C(Cc1cc2ccccc2s1)NCc1ccc2c(c1F)CN(C1CCC(=O)NC1=O)C2=O` (stereo not drawn) [FDAB-136]: in the assay with MV-4-11 cells (MV4-11, MV-4-11 cells, 72 h), the 50% inhibitory concentration (IC50) was 1 to 10 nM. Moreover, on GSPT1 protein (NB-4 cells, compound 1 μM, 6 h), the inhibition at 1 µM was greater than 80%.
On to `CC(=O)c1ccc(C(=O)NCc2ccc3c(c2F)CN(C2CCC(=O)NC2=O)C3=O)cc1` (stereo not drawn) [FDAB-99], for which, in the assay on MV-4-11 cells (MV4-11, MV-4-11 cells, 72 h), the 50% inhibitory concentration (IC50) lay within 10 to 100 nM. The inhibition at 1 µM at GSPT1 protein (NB-4 cells, compound 1 μM, 6 h) is 50 to 80%.
With `COc1ccc(C(=O)NCc2ccc3c(c2F)CN(C2CCC(=O)NC2=O)C3=O)cc1OC` (stereo not drawn) [FDAB-102], the IC50 in the assay with MV-4-11 cells (MV4-11, MV-4-11 cells, 72 h) is greater than 1000 nM. The inhibition at 1 µM on GSPT1 protein (NB-4 cells, compound 1 μM, 6 h) was less than 25%.
Take `NCc1cc(F)cc2c1CN(C1CCC(=O)NC1=O)C2=O` (stereo not drawn) [FDAB-17]: the 50% inhibitory concentration (IC50) in the assay with MV-4-11 cells (MV4-11, MV-4-11 cells, 72 h) lay in the range of 100 to 1000 nM. Besides, the inhibition at 1 µM on GSPT1 protein (NB-4 cells, compound 1 μM, 6 h) is less than 25%.
Take `O=C1CCC(N2Cc3cc(CNC(=O)c4cc5ccccc5o4)c(F)cc3C2=O)C(=O)N1` (stereo not drawn) [FDAB-19]: in the assay with MV-4-11 cells (MV4-11, MV-4-11 cells, 72 h), the concentration for half-maximal inhibition (IC50) is 1 to 10 nM. Further, the inhibition at 1 µM on GSPT1 protein (NB-4 cells, compound 1 μM, 6 h) is greater than 80%.
Regarding `CS(=O)(=O)c1ccc(C(=O)NCc2ccc3c(c2F)CN(C2CCC(=O)NC2=O)C3=O)c(N)c1` (stereo not drawn) [FDAB-114], in the assay on MV-4-11 cells (MV4-11, MV-4-11 cells, 72 h), the concentration for half-maximal inhibition (IC50) was greater than 1000 nM. Moreover, on GSPT1 protein (NB-4 cells, compound 1 μM, 6 h), the inhibition at 1 µM is less than 25%.
With `O=C1CCC(N2Cc3cc(CNC(=O)c4cc5cc(Cl)ccc5o4)c(F)cc3C2=O)C(=O)N1` (stereo not drawn) [FDAB-20], the half-maximal inhibitory concentration (IC50) in the assay with MV-4-11 cells (MV4-11, MV-4-11 cells, 72 h) lay in the range of 1 to 10 nM. For the same molecule, at GSPT1 protein (NB-4 cells, compound 1 μM, 6 h), the inhibition at 1 µM is greater than 80%.
For `N#Cc1cc(C(=O)NCc2ccc3c(c2Cl)CN(C2CCC(=O)NC2=O)C3=O)ccc1Cl` (stereo not drawn) [FDAB-78], in that order: greater than 1000 nM and less than 25%.
Take `CCc1ccc(C(=O)NCc2ccc3c(c2F)CN(C2CCC(=O)NC2=O)C3=O)cc1` (stereo not drawn) [FDAB-90]: in the assay with MV-4-11 cells (MV4-11, MV-4-11 cells, 72 h), the concentration for half-maximal inhibition (IC50) lay within 1 to 10 nM. On GSPT1 protein (NB-4 cells, compound 1 μM, 6 h), the inhibition at 1 µM is greater than 80%.
As to `[2H]c1c([2H])c(C(=O)NCc2ccc3c(c2F)CN(C2CCC(=O)NC2=O)C3=O)c([2H])c([2H])c1Cl` (stereo not drawn) [FDAB-18], the half-maximal inhibitory concentration (IC50) in the assay on MV-4-11 cells (MV4-11, 72 h) is 10 to 100 nM. The inhibition at 1 µM at GSPT1 protein (NB-4, 6 h) is greater than 80%.
Take `[2H]c1c([2H])c([2H])c(C(=O)NCc2ccc3c(c2F)CN(C2CCC(=O)NC2=O)C3=O)c([2H])c1[2H]` (stereo not drawn) [FDAB-88]: the IC50 with MV-4-11 cells (MV4-11, MV-4-11 cells, 72 h) was greater than 1000 nM. Besides, the inhibition at 1 µM on GSPT1 protein (NB-4 cells, compound 1 μM, 6 h) is less than 25%.
Taken in the same sequence, the figures for `O=C1CCC(N2Cc3c(ccc(CNC(=O)c4ccc(C(F)(F)F)cc4)c3F)C2=O)C(=O)N1` (stereo not drawn) [FDAB-61] were 1 to 10 nM and greater than 80%.
Consider `O=C1CCC(N2Cc3c(ccc(CNC(=O)c4cc5ccccc5o4)c3F)C2=O)C(=O)N1` (stereo not drawn) [FDAB-45], for which the IC50 with MV-4-11 cells (MV4-11, MV-4-11 cells, 72 h) lay in the range of 1 to 10 nM. Also, the inhibition at 1 µM at GSPT1 protein (NB-4 cells, compound 1 μM, 6 h) was greater than 80%.
As for `Nc1cccc(C(=O)NCc2cc3c(cc2F)C(=O)N(C2CCC(=O)NC2=O)C3)c1` (stereo not drawn) [FDAB-34], the 50% inhibitory concentration (IC50) in the assay on MV-4-11 cells (MV4-11, MV-4-11 cells, 72 h) is greater than 1000 nM. Moreover, the inhibition at 1 µM on GSPT1 protein (NB-4 cells, compound 1 μM, 6 h) is less than 25%.
With `CC(C)c1ccc(C(=O)NCc2ccc3c(c2F)CN(C2CCC(=O)NC2=O)C3=O)cc1` (stereo not drawn) [FDAB-93], the IC50 in the assay on MV-4-11 cells (MV4-11, MV-4-11 cells, 72 h) was less than 1 nM. For the same molecule, the inhibition at 1 µM at GSPT1 protein (NB-4 cells, compound 1 μM, 6 h) is greater than 80%.
With `O=C(Cc1cc2ccccc2s1)NCc1cc(F)cc2c1CN(C1CCC(=O)NC1=O)C2=O` (stereo not drawn) [FDAB-169], the IC50 in the assay with MV-4-11 cells (MV4-11, MV-4-11 cells, 72 h) was in the range of 10 to 100 nM. Besides, the inhibition at 1 µM at GSPT1 protein (NB-4 cells, compound 1 μM, 6 h) lay in the range of 50 to 80%.
`O=C(CCCCN1CCCCC1)NCc1ccc2c(c1F)CN(C1CCC(=O)NC1=O)C2=O` (stereo not drawn) [FDAB-159]: the half-inhibitory concentration (IC50) in the assay with MV-4-11 cells (MV4-11, MV-4-11 cells, 72 h) is greater than 1000 nM. The inhibition at 1 µM at GSPT1 protein (NB-4 cells, compound 1 μM, 6 h) was less than 25%.
With `O=C1CCC(N2Cc3cc(CNC(=O)c4nc5ccccc5[nH]4)c(F)cc3C2=O)C(=O)N1` (stereo not drawn) [FDAB-33], the IC50 in the assay with MV-4-11 cells (MV4-11, MV-4-11 cells, 72 h) is greater than 1000 nM. For the same molecule, the inhibition at 1 µM on GSPT1 protein (NB-4 cells, compound 1 μM, 6 h) is less than 25%.
With `O=C1CCC(N2Cc3c(ccc(CNC(=O)c4ccc(-c5ccccc5)cc4)c3F)C2=O)C(=O)N1` (stereo not drawn) [FDAB-84], in the assay on MV-4-11 cells (MV4-11, MV-4-11 cells, 72 h), the half-inhibitory concentration (IC50) is less than 1 nM. Besides, the inhibition at 1 µM on GSPT1 protein (NB-4 cells, compound 1 μM, 6 h) is greater than 80%.
As to `O=C(CCc1cccc2ccccc12)NCc1ccc2c(c1F)CN(C1CCC(=O)NC1=O)C2=O` (stereo not drawn) [FDAB-138], the half-inhibitory concentration (IC50) with MV-4-11 cells (MV4-11, MV-4-11 cells, 72 h) was less than 1 nM. The inhibition at 1 µM at GSPT1 protein (NB-4 cells, compound 1 μM, 6 h) was greater than 80%.
For `O=C1CCC(N2Cc3cc(CNC(=O)C4CC4)c(F)cc3C2=O)C(=O)N1` (stereo not drawn) [FDAB-40], in that order: greater than 1000 nM and less than 25%.

The record behind these values is patent US20250282746A1, “HALOGEN-SUBSTITUTED ISOINDOLINE COMPOUND AND USE THEREOF” (CHENGDU FENDI PHARMACEUTICAL CO., LTD., priority 2022, published 2025).
